Here are results for six compounds from patent publication US20250235434A1, “RIFABUTIN ANALOGS FOR THE TREATMENT OF DISEASE” (BIOVERSYS AG, priority 2022, published 2025).

Common to all, as to type: cell-based
Test [1] concerns M. tuberculosis H37Rv (ATCC 27294). The test is described as follows: microbe, parasite or virus in culture. The following applies: Mycobacterium tuberculosis, 120 h.
Test [2] has as its system M. avium (ATCC 25291). Kind of test: MIC against M. avium (resazurin assay). The settings on record: Mycobacterium avium, ATCC25291, 168 h, Middlebrook 7H9 + ADC, 90% growth inhibition, 7 days. For orientation: Resazurin is reduced to fluorescent resorufin, in cell work by metabolically active cells.
For test [3], the system named is M. abscessus (ATCC 19977). Kind of test: MIC by broth microdilution against M. abscessus. The following applies: Mycobacteroides abscessus, ATCC19977, 20 h; ATCC 19977; Middlebrook 7H9 broth with ADC supplement; visual reading; read-out: MIC M. abscessus. On the technique in general: Dilution methods test growth across graded concentrations, often in twofold steps.

Test [4] relates to M. kansasii (ATCC 12478). The test is described as follows: MIC against M. kansasii (resazurin assay). The following applies: Mycobacterium kansasii, ATCC12478, 168 h, Middlebrook 7H9 + ADC, 90% growth inhibition, 7 days.
Test [5] relates to A. baumannii (HUMC1 strain). Kind of test: MIC by broth microdilution against A. baumannii. The following applies: Acinetobacter baumannii, RPMI medium supplemented with 10% FCS, 35° C. for 20 hours, visual reading.
The subject of test [6] is M. smegmatis (ATCC 700084). The test is described as follows: MIC against M. smegmatis (resazurin assay). The following applies: Mycolicibacterium smegmatis, ATCC700084, Middlebrook 7H9 + ADC, 90% growth inhibition, 20 h.
Test [7] has as its system S. aureus (UAMS-1625 strain). Kind of test: MIC by broth microdilution against S. aureus. The settings on record: Staphylococcus aureus, 20 h, read-out: MIC S. aureus.
In test [8] the test system is M. xenopi (ATCC 19250). Kind of test: MIC against M. xenopi (resazurin assay). The following applies: Mycobacterium xenopi, ATCC19250, 168 h, Middlebrook 7H9 + ADC, 90% growth inhibition, 7 days.

In brackets after ≈: the same amount, converted by molar mass. A value given as a limit tells only on which side of the number the result lay.

As to `CO[C@H]1/C=C/O[C@@]2(C)Oc3c(C)c(O)c4c(c3C2=O)C2=NC3(CCN(CC(C)C)CC3)NC2=C(NC(=O)/C(C)=C\C=C\[C@H](C)[C@H](O)[C@@H](C)[C@@H](O)[C@@H](C)[C@H](OC(=O)CN2CCN(C)CC2)[C@@H]1C)C4=O` [Compound 6], the MIC in test [1] was 0.008 µg/mL (≈ 0.00846 µM); in test [2], 1.3 µg/mL; in test [3], 1 µg/mL (≈ 1.06 µM); in test [4], 0.01 µg/mL; in test [5] it was not above 0.002 µg/mL; in test [6] it was 0.03 µg/mL. Besides, the MIC in test [7] came to 0.03 µg/mL (≈ 0.0317 µM); in test [8], 0.04 µg/mL.

Regarding `CO[C@H]1/C=C/O[C@@]2(C)Oc3c(C)c(O)c4c(c3C2=O)C2=NC3(CCN(CC(C)C)CC3)NC2=C(NC(=O)/C(C)=C\C=C\[C@H](C)[C@H](O)[C@@H](C)[C@@H](O)[C@@H](C)[C@H](OC(=O)CNCCN2CCOCC2)[C@@H]1C)C4=O` [Compound 10], the MIC in test [1] was 0.008 µg/mL (≈ 0.0082 µM); in test [2], 1 µg/mL; in test [3] it was 1 µg/mL (≈ 1.03 µM); in test [4], 0.015 µg/mL; in test [5] it was not above 0.002 µg/mL; in test [6] it was 0.1 µg/mL. For the same compound, the MIC stood at 0.03 µg/mL (≈ 0.0308 µM) in test [7] and 0.01 µg/mL in test [8].

On to `CO[C@H]1/C=C/O[C@@]2(C)Oc3c(C)c(O)c4c(c3C2=O)C2=NC3(CCN(CC(C)C)CC3)NC2=C(NC(=O)/C(C)=C\C=C\[C@H](C)[C@H](O)[C@@H](C)[C@@H](O)[C@@H](C)[C@H](OC(=O)CNCCCN(C)C)[C@@H]1C)C4=O` [Compound 12], for which the MIC is 0.003 µg/mL (≈ 0.00317 µM) in test [1]; 1.4 µg/mL in test [2]; 1 µg/mL (≈ 1.06 µM) in test [3]; 0.0055 µg/mL in test [4]; not above 0.002 µg/mL in test [5]; 0.03 µg/mL in test [6]. For the same compound, the figures for the MIC in test [7] and in test [8] were 0.03 µg/mL (≈ 0.0317 µM) and 0.01 µg/mL, respectively.

Regarding `CO[C@H]1/C=C/O[C@@]2(C)Oc3c(C)c(O)c4c(c3C2=O)C2=NC3(CCN(CC(C)C)CC3)NC2=C(NC(=O)/C(C)=C\C=C\[C@H](C)[C@H](O)[C@@H](C)[C@@H](O)[C@@H](C)[C@H](OC(=O)CN2CCC(n3c(=O)[nH]c5ccccc53)CC2)[C@@H]1C)C4=O` [Compound 18], the MIC was 0.002 µg/mL (≈ 0.00188 µM) in test [1]; 1.3 µg/mL in test [2]; 0.5 µg/mL (≈ 0.471 µM) in test [3]; 0.01 µg/mL in test [4]; 0.03 µg/mL (≈ 0.0282 µM) in test [5]; 0.09 µg/mL in test [6]. The MIC was found to be 0.5 µg/mL (≈ 0.471 µM) in test [7] and 0.01 µg/mL in test [8].

`CO[C@H]1/C=C/O[C@@]2(C)Oc3c(C)c(O)c4c(c3C2=O)C2=NC3(CCN(CC(C)C)CC3)NC2=C(NC(=O)/C(C)=C\C=C\[C@H](C)[C@H](O)[C@@H](C)[C@@H](O)[C@@H](C)[C@H](OC(=O)CN2CCC(n3c(=O)[nH]c5cc(Cl)ccc53)CC2)[C@@H]1C)C4=O` [Compound 19]: the MIC in test [1] amounted to 0.003 µg/mL (≈ 0.00274 µM); in test [2], 4 µg/mL; in test [3], 0.5 µg/mL (≈ 0.456 µM); in test [4], 0.015 µg/mL; in test [5], 0.125 µg/mL (≈ 0.114 µM); in test [6] it was 0.24 µg/mL. Also, the results for the MIC in test [7] and in test [8] were 4 µg/mL (≈ 3.65 µM) and 0.03 µg/mL, respectively.

For `CO[C@H]1/C=C/O[C@@]2(C)Oc3c(C)c(O)c4c(c3C2=O)C2=NC3(CCN(CC(C)C)CC3)NC2=C(NC(=O)/C(C)=C\C=C\[C@H](C)[C@H](O)[C@@H](C)[C@@H](O)[C@@H](C)[C@H](OC(=O)CN2CCC3(CC2)C(=O)NCN3c2ccccc2)[C@@H]1C)C4=O` [Compound 20], the MIC came to 0.003 µg/mL (≈ 0.00279 µM) in test [1]; 0.5 µg/mL in test [2]; 0.25 µg/mL (≈ 0.232 µM) in test [3]; 0.01 µg/mL in test [4]; 0.03 µg/mL (≈ 0.0279 µM) in test [5]; 0.1 µg/mL in test [6]. The MIC in test [7] came to 0.5 µg/mL (≈ 0.465 µM); in test [8], 0.03 µg/mL.
